Source: article PMC10790229 (Journal of medicinal chemistry, 2023)

Assays:
Format in all cases: cell-based
HIV-1 IIIB = assay: Anti-HIV-1 activity in MT-4 cells; settings: MT-4 cells; for SI IIIB (CC50/EC50): HIV-1 IIIB
HIV-2 ROD = assay: Anti-HIV-2 activity in MT-4 cells; settings: HIV-2 ROD; for EC50: read-out: EC50 ROD, 50% protection of MT-4 cells against HIV-induced cytotoxicity
MT-4 cells = assay: Cytotoxicity in uninfected MT-4 cells

Row | SMILES | SI IIIB (CC50/EC50) (HIV-1 IIIB) | SI ROD (CC50/EC50) (HIV-2 ROD; MT-4 cells) | Ratio IIIB(EC50)/ROD(EC50) (HIV-1 IIIB) | EC50 (HIV-2 ROD) | CC50 (MT-4 cells) | fold improvement of anti-HIV-2 potency over PF74 (HIV-2 ROD; MT-4 cells)
1 | COc1ccc(-n2c([C@H](Cc3ccccc3)NC(=O)CN3CCN(S(=O)(=O)c4ccc([N+](=O)[O-])cc4)CC3=O)nc3ccccc3c2=O)cc1 [11a1, (S)-N-(1-(3-(4-Methoxyphenyl)-4-oxo-3,4-dihydroquinazolin-2-yl)-2-phenylethyl)-2-(4-((4-nitrophenyl)sulfonyl)-2-oxopiperazin-1-yl)acetamide] | >119.05 | >312.50 | – | – | – | –
2 | COc1ccc(-n2c([C@H](Cc3cc(F)cc(F)c3)NC(=O)CN3CCN(S(=O)(=O)c4ccc([N+](=O)[O-])cc4)CC3=O)nc3ccccc3c2=O)cc1 [11a2, (S)-N-(2-(3,5-Difluorophenyl)-1-(3-(4-methoxyphenyl)-4-oxo-3,4-dihydroquinazolin-2-yl)ethyl)-2-(4-((4-nitrophenyl)sulfonyl)-2-oxopiperazin-1-yl)acetamide] | >320.51 | >416.67 | 1.29 | 410 ± 40 nM | > 171 µM | –
3 | COc1ccc(-n2c([C@H](Cc3ccccc3)NC(=O)CN3CCN(S(=O)(=O)c4ccc([N+](=O)[O-])cc4)CC3=O)nc3cc(Cl)ccc3c2=O)cc1 [11c1, (S)-N-(1-(7-Chloro-3-(4-methoxyphenyl)-4-oxo-3,4-dihydroquinazolin-2-yl)-2-phenylethyl)-2-(4-((4-nitrophenyl)sulfonyl)-2-oxopiperazin-1-yl)acetamide] | >79.11 | >403.23 | 5.14 | 420 ± 40 nM | > 171 µM | –
4 | COc1ccc(-n2c([C@H](Cc3ccccc3)NC(=O)CN3CCN(S(=O)(=O)c4ccc([N+](=O)[O-])cc4)CC3=O)nc3cc(Br)ccc3c2=O)cc1 [11d1, (S)-N-(1-(7-Bromo-3-(4-methoxyphenyl)-4-oxo-3,4-dihydroquinazolin-2-yl)-2-phenylethyl)-2-(4-((4-nitrophenyl)sulfonyl)-2-oxopiperazin-1-yl)acetamide] | >67.20 | >446.43 | 6.67 | 360 ± 30 nM | > 161 µM | –
5 | COc1ccc(-n2c([C@H](Cc3cc(F)cc(F)c3)NC(=O)CN3CCN(S(=O)(=O)c4ccc([N+](=O)[O-])cc4)CC3=O)nc3cc(Br)ccc3c2=O)cc1 [11d2, (S)-N-(1-(7-Bromo-3-(4-methoxyphenyl)-4-oxo-3,4-dihydroquinazolin-2-yl)-2-(3,5-difluorophenyl)ethyl)-2-(4-((4-nitrophenyl)sulfonyl)-2-oxopiperazin-1-yl)acetamide] | >156.25 | >260.42 | 1.68 | 590 ± 200 nM | > 154 µM | –
6 | COc1ccc(-n2c([C@H](Cc3ccccc3)NC(=O)CN3CCN(S(=O)(=O)c4ccc([N+](=O)[O-])cc4)CC3=O)nc3cc(S(C)(=O)=O)ccc3c2=O)cc1 [11e1, (S)-N-(1-(3-(4-Methoxyphenyl)-7-(methylsulfonyl)-4-oxo-3,4-dihydroquinazolin-2-yl)-2-phenylethyl)-2-(4-((4-nitrophenyl)-sulfonyl)-2-oxopiperazin-1-yl)acetamide] | >58.14 | >500.00 | 8.66 | 320 ± 30 nM | > 161 µM | –
7 | COc1ccc(-n2c([C@H](Cc3cc(F)cc(F)c3)NC(=O)CN3CCN(S(=O)(=O)c4ccc([N+](=O)[O-])cc4)CC3=O)nc3cc(S(C)(=O)=O)ccc3c2=O)cc1 [11e2, (S)-N-(2-(3,5-Difluorophenyl)-1-(3-(4-methoxyphenyl)-7-(methylsulfonyl)-4-oxo-3,4-dihydroquinazolin-2-yl)ethyl)-2-(4-((4-nitrophenyl)sulfonyl)-2-oxopiperazin-1-yl)acetamide] | >83.89 | >378.79 | 4.49 | 410 ± 50 nM | > 154 µM | –
8 | COc1ccc(-n2c([C@H](Cc3ccccc3)NC(=O)CN3CCN(S(=O)(=O)c4ccc(N)cc4)CC3=O)nc3cc(F)ccc3c2=O)cc1 [12b1, (S)-2-(4-((4-Aminophenyl)sulfonyl)-2-oxopiperazin-1-yl)-N-(1-(7-fluoro-3-(4-methoxyphenyl)-4-oxo-3,4-dihydroquinazolin-2-yl)-2-phenylethyl)acetamide] | >223.21 | >1250.00 | 5.47 | 150 ± 30 nM | > 183 µM | –
9 | COc1ccc(-n2c([C@H](Cc3cc(F)cc(F)c3)NC(=O)CN3CCN(S(=O)(=O)c4ccc(N)cc4)CC3=O)nc3cc(F)ccc3c2=O)cc1 [12b2, (S)-2-(4-((4-Aminophenyl)sulfonyl)-2-oxopiperazin-1-yl)-N-(2-(3,5-difluorophenyl)-1-(7-fluoro-3-(4-methoxyphenyl)-4-oxo-3,4-dihydroquinazolin-2-yl)ethyl)acetamide] | >568.18 | >1488.10 | 2.58 | 120 ± 30 nM | > 173 µM | –
10 | COc1ccc(-n2c([C@H](Cc3cc(F)cc(F)c3)NC(=O)CN3CCN(S(=O)(=O)c4ccc(N)cc4)CC3=O)nc3cc(Cl)ccc3c2=O)cc1 [12c2, (S)-2-(4-((4-Aminophenyl)sulfonyl)-2-oxopiperazin-1-yl)-N-(1-(7-chloro-3-(4-methoxyphenyl)-4-oxo-3,4-dihydroquinazolin-2-yl)-2-(3,5-difluorophenyl)ethyl)acetamide] | >1250.00 | >2083.33 | 1.75 | 80 ± 10 nM | > 170 µM | 47 fold
11 | O=C(CN1CCN(S(=O)(=O)c2ccc([N+](=O)[O-])cc2)CC1=O)N[C@@H](Cc1ccccc1)c1nc2ccccc2c(=O)n1-c1ccc(S(=O)(=O)N2CCOCC2)cc1 [20a1, (S)-N-(1-(3-(4-(Morpholinosulfonyl)phenyl)-4-oxo-3,4-dihydroquinazolin-2-yl)-2-phenylethyl)-2-(4-((4-nitrophenyl)-sulfonyl)-2-oxopiperazin-1-yl)acetamide] | >126.26 | >416.67 | 3.27 | 370 ± 90 nM | > 153 µM | –
12 | O=C(CN1CCN(S(=O)(=O)c2ccc([N+](=O)[O-])cc2)CC1=O)N[C@@H](Cc1cc(F)cc(F)c1)c1nc2ccccc2c(=O)n1-c1ccc(S(=O)(=O)N2CCOCC2)cc1 [20a2, (S)-N-(2-(3,5-Difluorophenyl)-1-(3-(4-(morpholinosulfonyl)-phenyl)-4-oxo-3,4-dihydroquinazolin-2-yl)ethyl)-2-(4-((4-nitrophenyl)sulfonyl)-2-oxopiperazin-1-yl)acetamide] | >892.86 | >833.33 | 0.89 | 180 ± 50 nM | > 147 µM | –
13 | O=C(CN1CCN(S(=O)(=O)c2ccc([N+](=O)[O-])cc2)CC1=O)N[C@@H](Cc1ccccc1)c1nc2ccccc2c(=O)n1-c1ccc(S(=O)(=O)N2CCS(=O)(=O)CC2)cc1 [20b1, (S)-N-(1-(3-(4-((1,1-Dioxidothiomorpholino)sulfonyl)phenyl)-4-oxo-3,4-dihydroquinazolin-2-yl)-2-phenylethyl)-2-(4-((4-nitrophenyl)sulfonyl)-2-oxopiperazin-1-yl)acetamide] | >11.47 | >198.41 | 17.29 | 730 ± 160 nM | > 145 µM | –
